Measurements: patent US8492331B2, “Methods for increasing absorption of peptides, peptidomimetics and other gastrointestinal transport protein substrates” (Nestec S.A., priority 2008, dated 2013)

Columns and labels:
[1] = Serum melatonin pharmacokinetics after oral melatonin, radioimmunoassay (Example 1); type: in vivo, Dogs
Description: Melatonin was quantified by radioimmunoassay procedures.

[2] = melatonin 1 mg/kg BW oral before cephalexin 15 mg/kg BW oral
Method: (§1) Methodology: The study was designed to test the feeding of melatonin on the absorption of cephalexin. Dogs (n=24, Body Weight (BW) range: 7-14 kg, age range: 1.5 to 14 yrs) were divided into a test group and a control group. The respective groups were balanced for gender.
(§2) The test group received a single dose of melatonin (1 mg/kg BW) at 12:00 pm, followed by a single dose of cephalexin (15 mg/kg BW) between 1:00 and 2:00 pm. Dosing with melatonin and cephalexin were both by oral administration to the dogs. The study evaluated cephalexin absorption by determining the pharmacokinetics of cephalexin appearance in serum subsequent to the melatonin administration. […] Samples for pharmacokinetic analysis were taken at 15, 30, 45, and 60 min, as well as 1.5, 2, 2.5, 3, 3.5, 4, 6, and 8 hours after oral dosing of cephalexin. Cephalexin concentration was determined by high pressure liquid chromatograph. Serum melatonin content was analyzed before and after the oral administration time, e.g., at −5, −3, −1, −0.5 hour before, 0 (dosing time), and at 0.5, 1, 2, 3, 4, and 6 hours after oral dosing of melatonin. Melatonin was quantified by radioimmunoassay procedures.

[3] = Titration of oral melatonin dose on cephalexin absorption: serum pharmacokinetics of cephalexin (Example 2)
Method: (§3) Methology: The study used n=40 Labrador Retriever dogs (BW range: 21-40 kg) to test the oral ingestion of melatonin compared to no-melatonin placebo control on the absorption of cephalexin, an antibiotic that also serves as a marker substrate for small peptides. The dogs were balanced for gender and the ages ranged from 1.5 to 9 years old. The study evaluated cephalexin absorption by orally administering a single 15 mg/kg BW dose of cephalexin to dogs at 2:00 pm, and subsequently determining the pharmakinetics of cephalexin appearance in serum. Dogs were randomized into 5 different treatment groups and received a single oral dose of melatonin (0.01, 0.1, 1, or 3 mg/kg BW) in a gelatin capsule or placebo simultaneously as the cephalexin dose. The oral dose was immediately followed by an oral administration of 60 mL of water by a 60 mL irrigation syringe. The melatonin dose diluent and placebo pill were the inert carrier, avicel. Cephalexin pharmakinetics were analyzed at 30 and 60 min after dosing and 1.5, 2, 2.5, 3, 4, and 6 hours after oral dosing of cephalexin. Cephalexin concentration was determined by high pressure liquid chromatograph.

[4] = both, Labrador Retriever, dog, in vivo, po, 3 mg/kg
Method: as §3

[5] = Day/night activity, Actiwatch monitor, 24 h before and 48 h after oral melatonin (Example 2); type: in vivo, Labrador Retriever dogs; details: for Activity (Actiwatch): start of day 2
Method: Dogs were fitted with an Actiwatch monitor 24 hours before oral ingestion of one of the melatonin doses, specifically at 2 PM on day 1. Following the oral administration of melatonin, the activity monitoring continued for another 48 hours, at which time the monitors were removed and the data collected for analysis. The dogs were exposed to 11.5 h light:12.5 h dark cycle, in which kennel lighting and natural light was combined over the 11.5 hour period. In the morning the light cycle began with exposure to kennel lighting at 6 AM and darkness onset occurred at 5:30 PM with sunset. For data analysis, activity was separated into three periods of time, afternoon light phase (2 PM to 5:30 PM, 3.5 h duration), dark phase (5:30 PM to 6 AM, 12.5 h duration), and morning light phase (6 AM to 2 PM, 8 h duration). For data analysis purposes, a 24 hour period is from 2:00 PM to 1:59 PM.

in vivo [6] = details: both, dog, serum, oral, 15 mg/kg BW
Method: as §1, §2

in vivo [7] = details: both, Labrador Retriever, dog, serum, oral, 15 mg/kg BW
Method: as §3

With `COc1ccc2[nH]cc(CCNC(C)=O)c2c1` [Melatonin, 5-methoxy-N-acetyltryptamine] the concentration at 1 h ([1]; dog, serum, melatonin 1 mg/kg BW oral at 12:00 pm, sample 1:00 pm) was 9.55 ng/mL, the concentration at 1.5 h ([1]; dog, serum, melatonin 1 mg/kg BW oral at 12:00 pm, sample 1:30 pm) was 8.97 ng/mL and the concentration at 2 h ([1]; dog, serum, melatonin 1 mg/kg BW oral at 12:00 pm, sample 2:00 pm) was 4.79 ng/mL. The concentration at 3 h ([1]; dog, serum, melatonin 1 mg/kg BW oral at 12:00 pm, sample 3:00 pm) was 1.46 ng/mL, the concentration at 4 h ([1]; dog, serum, melatonin 1 mg/kg BW oral at 12:00 pm, sample 4:00 pm) was 0.747 ng/mL and the concentration at 5 h ([1]; dog, serum, melatonin 1 mg/kg BW oral at 12:00 pm, sample 5:00 pm) was 0.273 ng/mL. The concentration at 7 h ([1]; dog, serum, melatonin 1 mg/kg BW oral at 12:00 pm, sample 7:00 pm) was 0.0885 ng/mL, the concentration at -3 h ([1]; dog, serum, melatonin 1 mg/kg BW oral at 12:00 pm, sample 9:00 am (before dosing)) was 0.0039 ng/mL and the concentration at -1 h ([1]; dog, serum, melatonin 1 mg/kg BW oral at 12:00 pm, sample 11:00 am (before dosing)) was 0.0005 ng/mL. For the same compound, the concentration at 0 h ([1]; dog, serum, melatonin 1 mg/kg BW oral at 12:00 pm, sample 12:00 pm (dosing time)) was 0.0184 ng/mL, the concentration at 0.5 h ([1]; dog, serum, melatonin 1 mg/kg BW oral at 12:00 pm, sample 12:30 pm) was 10.7 ng/mL and the “Melatonin appearance in serum” value ([1]; dogs that ingested melatonin 1 mg/kg BW, versus baseline levels of control dogs) was “increased significantly for up to 6 hours after ingestion”. For the same compound, the “Effect of oral melatonin on absorption of cephalexin” value [2] was “increased the absorption of cephalexin”, the “Amount of cephalexin appearing in the blood compared to the placebo group” value ([3]; melatonin 0.01 mg/kg BW oral) was “slightly decreased” and the “Effect on absorption of cephalexin compared to placebo dogs” value ([3]; melatonin 0.1, 1, and 3 mg/kg BW oral) was “an increase in the absorption of cephalexin”. The “Cephalexin AUC greater than placebo group” value [4] was 45-34, the “Activity (Actiwatch)” value ([5]; melatonin 0.01 mg/kg BW oral at 2 PM, Afternoon Light Phase (2 PM-5:30 PM), Day 1 (before dosing)) was 30064 and the “Activity (Actiwatch)” value ([5]; melatonin 0.01 mg/kg BW oral at 2 PM, Afternoon Light Phase (2 PM-5:30 PM), Day 2) was 44935. For the same compound, the “Activity (Actiwatch)” value ([5]; melatonin 0.01 mg/kg BW oral at 2 PM, Afternoon Light Phase (2 PM-5:30 PM), Day 3) was 39386, the “Activity (Actiwatch)” value ([5]; melatonin 0.01 mg/kg BW oral at 2 PM, Dark Phase (5:30 PM-6 AM), Day 1 (before dosing)) was 32346 and the “Activity (Actiwatch)” value ([5]; melatonin 0.01 mg/kg BW oral at 2 PM, Dark Phase (5:30 PM-6 AM), Day 2) was 30930. For the same compound, the “Activity (Actiwatch)” value ([5]; melatonin 0.01 mg/kg BW oral at 2 PM, Dark Phase (5:30 PM-6 AM), Day 3) was 34140, the “Activity (Actiwatch)” value ([5]; melatonin 0.01 mg/kg BW oral at 2 PM, Morning Light Phase (6 AM-2 PM), Day 1 (before dosing)) was 140160 and the “Activity (Actiwatch)” value ([5]; melatonin 0.01 mg/kg BW oral at 2 PM, Morning Light Phase (6 AM-2 PM), Day 2) was 128216. The “Activity (Actiwatch)” value ([5]; melatonin 0.01 mg/kg BW oral at 2 PM, Morning Light Phase (6 AM-2 PM), Day 3) was 120706, the “Activity (Actiwatch)” value ([5]; melatonin 0.1 mg/kg BW oral at 2 PM, Afternoon Light Phase (2 PM-5:30 PM), Day 1 (before dosing)) was 28140 and the “Activity (Actiwatch)” value ([5]; melatonin 0.1 mg/kg BW oral at 2 PM, Afternoon Light Phase (2 PM-5:30 PM), Day 2) was 30124. The “Activity (Actiwatch)” value ([5]; melatonin 0.1 mg/kg BW oral at 2 PM, Afternoon Light Phase (2 PM-5:30 PM), Day 3) was 21497, the “Activity (Actiwatch)” value ([5]; melatonin 0.1 mg/kg BW oral at 2 PM, Dark Phase (5:30 PM-6 AM), Day 1 (before dosing)) was 38464 and the “Activity (Actiwatch)” value ([5]; melatonin 0.1 mg/kg BW oral at 2 PM, Dark Phase (5:30 PM-6 AM), Day 2) was 30753. For the same compound, the “Activity (Actiwatch)” value ([5]; melatonin 0.1 mg/kg BW oral at 2 PM, Dark Phase (5:30 PM-6 AM), Day 3) was 32849, the “Activity (Actiwatch)” value ([5]; melatonin 0.1 mg/kg BW oral at 2 PM, Morning Light Phase (6 AM-2 PM), Day 1 (before dosing)) was 133337 and the “Activity (Actiwatch)” value ([5]; melatonin 0.1 mg/kg BW oral at 2 PM, Morning Light Phase (6 AM-2 PM), Day 2) was 130972. For the same compound, the “Activity (Actiwatch)” value ([5]; melatonin 0.1 mg/kg BW oral at 2 PM, Morning Light Phase (6 AM-2 PM), Day 3) was 99800, the “Activity (Actiwatch)” value ([5]; melatonin 1 mg/kg BW oral at 2 PM, Afternoon Light Phase (2 PM-5:30 PM), Day 1 (before dosing)) was 34376 and the “Activity (Actiwatch)” value ([5]; melatonin 1 mg/kg BW oral at 2 PM, Afternoon Light Phase (2 PM-5:30 PM), Day 2) was 44889. For the same compound, the “Activity (Actiwatch)” value ([5]; melatonin 1 mg/kg BW oral at 2 PM, Afternoon Light Phase (2 PM-5:30 PM), Day 3) was 31184, the “Activity (Actiwatch)” value ([5]; melatonin 1 mg/kg BW oral at 2 PM, Dark Phase (5:30 PM-6 AM), Day 1 (before dosing)) was 47178 and the “Activity (Actiwatch)” value ([5]; melatonin 1 mg/kg BW oral at 2 PM, Dark Phase (5:30 PM-6 AM), Day 2) was 26733. The “Activity (Actiwatch)” value ([5]; melatonin 1 mg/kg BW oral at 2 PM, Dark Phase (5:30 PM-6 AM), Day 3) was 49958, the “Activity (Actiwatch)” value ([5]; melatonin 1 mg/kg BW oral at 2 PM, Morning Light Phase (6 AM-2 PM), Day 1 (before dosing)) was 155482 and the “Activity (Actiwatch)” value ([5]; melatonin 1 mg/kg BW oral at 2 PM, Morning Light Phase (6 AM-2 PM), Day 2) was 151573. For the same compound, the “Activity (Actiwatch)” value ([5]; melatonin 1 mg/kg BW oral at 2 PM, Morning Light Phase (6 AM-2 PM), Day 3) was 126103, the “Activity (Actiwatch)” value ([5]; melatonin 3 mg/kg BW oral at 2 PM, Afternoon Light Phase (2 PM-5:30 PM), Day 1 (before dosing)) was 30548 and the “Activity (Actiwatch)” value ([5]; melatonin 3 mg/kg BW oral at 2 PM, Afternoon Light Phase (2 PM-5:30 PM), Day 2) was 45730. For the same compound, the “Activity (Actiwatch)” value ([5]; melatonin 3 mg/kg BW oral at 2 PM, Afternoon Light Phase (2 PM-5:30 PM), Day 3) was 35034, the “Activity (Actiwatch)” value ([5]; melatonin 3 mg/kg BW oral at 2 PM, Dark Phase (5:30 PM-6 AM), Day 1 (before dosing)) was 33517 and the “Activity (Actiwatch)” value ([5]; melatonin 3 mg/kg BW oral at 2 PM, Dark Phase (5:30 PM-6 AM), Day 2) was 35926. The “Activity (Actiwatch)” value ([5]; melatonin 3 mg/kg BW oral at 2 PM, Dark Phase (5:30 PM-6 AM), Day 3) was 33492, the “Activity (Actiwatch)” value ([5]; melatonin 3 mg/kg BW oral at 2 PM, Morning Light Phase (6 AM-2 PM), Day 1 (before dosing)) was 139265 and the “Activity (Actiwatch)” value ([5]; melatonin 3 mg/kg BW oral at 2 PM, Morning Light Phase (6 AM-2 PM), Day 2) was 153805. For the same compound, the “Activity (Actiwatch)” value ([5]; melatonin 3 mg/kg BW oral at 2 PM, Morning Light Phase (6 AM-2 PM), Day 3) was 117374, the “Activity during the dark phase immediately following oral ingestion, compared to placebo” value ([5]; melatonin 0.01, 0.1, and 1 mg/kg groups) was “decrease compared to the placebo groups” and the “Influence on activity, late afternoon light phase (2 pm to 5:30 pm)” value ([5]; oral melatonin 0.01, 0.1, 1, and 3 mg/kg BW) was “did not demonstrate any influence of oral melatonin on activity”. The “Impact on activity in the daylight hours” value ([5]; oral melatonin 0.01-3 mg/kg BW) was “does not seem to impact activity of dogs in the daylight hours” and the Nighttime activity ([5]; oral melatonin administered in the afternoon) was “nighttime activity is slightly reduced”.
`CC1=C(C(=O)O)N2C(=O)[C@@H](NC(=O)[C@H](N)c3ccccc3)[C@H]2SC1` [Cephalexin, cephalexin] gave a concentration at 0.25 h (in vivo [6]) of 790 ng/mL, a concentration at 0.5 h (in vivo [6]) of 4170 ng/mL and a concentration at 0.75 h (in vivo [6]) of 8190 ng/mL. The concentration at 1 h (in vivo [6]) was 10900 ng/mL, the concentration at 1.5 h (in vivo [6]) was 13900 ng/mL and the concentration at 2 h (in vivo [6]) was 13700 ng/mL. It also gave a concentration at 2.5 h (in vivo [6]) of 14300 ng/mL, a concentration at 3 h (in vivo [6]) of 13000 ng/mL and a concentration at 3.5 h (in vivo [6]) of 11800 ng/mL. The concentration at 4 h (in vivo [6]) was 9900 ng/mL, the concentration at 6 h (in vivo [6]) was 5910 ng/mL and the concentration at 8 h (in vivo [6]) was 3730 ng/mL. The concentration at 0.5 h (in vivo [7]) was 2010 ng/mL, the concentration at 1 h (in vivo [7]) was 6280 ng/mL and the concentration at 1.5 h (in vivo [7]) was 9920 ng/mL. It also gave a concentration at 2 h (in vivo [7]) of 11800 ng/mL, a concentration at 2.5 h (in vivo [7]) of 12400 ng/mL and a concentration at 3 h (in vivo [7]) of 12200 ng/mL. For the same compound, the concentration at 4 h (in vivo [7]) was 11300 ng/mL and the concentration at 6 h (in vivo [7]) was 7570 ng/mL.
